One compound from article PMC3461162 (British Journal of Cancer, 2012) can be followed below.

The subject of the assay is pAKT, p4E-BP1 and pS6 in tumour biopsies. Nature of the assay: Immunohistochemistry of paired pre- and post-dose tumour biopsies. Type of assay: in vivo, human. Conditions: two patients with baseline and post-dose tumour sample.

Take `COc1ccc(-c2ccc3c(N4CCOC[C@@H]4C)nc(N4CCOC[C@@H]4C)nc3n2)cc1CO` [AZD8055]: the “Biomarker modulation for pAKT, p4E-BP1 and pS6 in tumour samples” value is “did not show conclusive evidence of biomarker modulation”.
